Experimental data from patent publication US20100075852A1, “HERBICIDE COMBINATION COMPRISING DIMETHOXYTRIAZINYL-SUBSTITUTED DIFLUOROMETHANESULFONYLANILIDES” (BAYER CROPSCIENCE AG, priority 2008, published 2010).
Read-outs that look alike come from different tables or passages of the source.

Columns and labels:
Assay in all cases: Post-emergence action against weeds, greenhouse pot test, visual scoring
Type in all cases: in vivo
[1] = tested on: Abuthilon theophrasti (ABUTH); conditions: 21 DAT, rate (5) A-1 12
Procedure: (§1) Seeds or rhizome pieces of mono- and dicotyledonous harmful and useful plants were placed in peat pots (diameter 4 cm) filled with sandy loam and then covered with soil. The pots were kept in a greenhouse under optimum conditions. In addition, harmful plants encountered in paddy rice cultivation were cultivated in pots with a water level 2 cm above the soil surface.
(§2) About three weeks after the start of the cultivation, the test plants were treated at the 2- to 3-leaf stage. The herbicides, formulated as powder or liquid concentrates, were, either alone or in the combinations according to the invention, sprayed in various dosages on to the green parts of the plants using an application rate of 600 l of water/ha (converted). For further cultivation of the plants, the pots were then again kept under optimum conditions in a greenhouse.
(§3) The visual scoring of the herbicidal effects was carried out in intervals up to 21 days after the treatment. Scoring was carried out in percent in comparison to the untreated control plants. 0%=no herbicidal activity, 100%=complete herbicidal activity=complete kill.
(§4) The percentages from the treatments with the herbicides alone (=individual application) and with the combinations according to the invention (=mixtures) were employed to calculate interactions using the method of Colby.
(§5) • A, B=activity of components A and B in percent at a dosage of a and b g of ai/ha (=gramm of active substance per hectare), respectively. • E=expected value in % at a dosage of a+b g of ai/ha.

[2] = tested on: Avena fatua (AVEFA); conditions: AVEFA; for inhibition at 4 g/ha / inhibition at 12 g/ha: Avena fatua, post-emergence, read-out: % activity found; for inhibition at 4 g/ha: 4 g of ai/ha alone; for inhibition at 12 g/ha: 12 g of ai/ha alone
Procedure: as §1, §2, §3, §4, §5

[3] = tested on: Cyperus esculentus (CYPES); conditions: CYPES, 21 DAT
Procedure: as §1, §2, §3, §4, §5

[4] = tested on: Fallopia (ex Polygonum) convolvulus (POLCO); conditions: POLCO, 21 DAT
Procedure: as §1, §2, §3, §4, §5

[5] = tested on: Lolium multiflorum (LOLMU); conditions: LOLMU; for inhibition at 4 g/ha / inhibition at 12 g/ha: Lolium multiflorum, post-emergence, read-out: % activity found; for inhibition at 4 g/ha: 4 g of ai/ha alone; for inhibition at 12 g/ha: 12 g of ai/ha alone
Procedure: as §1, §2, §3, §4, §5

[6] = tested on: Matricaria inodora (MATIN); conditions: MATIN, 21 DAT
Procedure: as §1, §2, §3, §4, §5

[7] = tested on: Pharbitis purpurea (PHBPU); conditions: 21 DAT
Procedure: as §1, §2, §3, §4, §5

[8] = tested on: Stellaria media (STEME); conditions: 10 DAT
Procedure: as §1, §2, §3, §4, §5

[9] = tested on: Triticum aestivum (TRZAS); conditions: for (7) activity found: rate (5) A-1 12; for inhibition at 4 g/ha / inhibition at 12 g/ha: Triticum aestivum, post-emergence, read-out: % activity found; for inhibition at 4 g/ha: 4 g of ai/ha alone; for inhibition at 12 g/ha: 12 g of ai/ha alone
Procedure: as §1, §2, §3, §4, §5

[10] = tested on: Veronica persica (VERPE); conditions: 21 DAT, rate (5) A-1 12
Procedure: as §1, §2, §3, §4, §5

[11] = tested on: Viola tricolor (VIOTR); conditions: for (7) activity found: rate (5) A-1 12
Procedure: as §1, §2, §3, §4, §5

[12] = tested on: Zea mays (ZEAMX); conditions: ZEAMX; for inhibition at 4 g/ha / inhibition at 12 g/ha: Zea mays, post-emergence, read-out: % activity found; for inhibition at 4 g/ha: 4 g of ai/ha alone; for inhibition at 12 g/ha: 12 g of ai/ha alone
Procedure: as §1, §2, §3, §4, §5

[13] = tested on: Alopecurus myosuroides (ALOMY); conditions: ALOMY, read-out: % activity found; for inhibition at 4 g/ha: 4 g of ai/ha alone; for inhibition at 12 g/ha: 12 g of ai/ha alone
Procedure: as §1, §2, §3
(§6) The percentages from the treatments with the herbicides alone (=individual application) and with the combinations according to the invention (=mixtures) were employed to calculate interactions using the method of Colby. When the observed efficacies of the mixtures exceed the formal sum of the values of the tests with individual applications, they also exceed the expected value according to Colby, which is calculated using the formula below (cf. S. R. Colby; in Weeds 15 (1967) pp. 20 to 22):
as §5

[14] = tested on: Oryza sativa (ORYSA); conditions: ORYSA, read-out: % activity found; for inhibition at 4 g/ha: 4 g of ai/ha alone; for inhibition at 12 g/ha: 12 g of ai/ha alone
Procedure: as §1, §2, §3, §6, §5

[15] = tested on: Setaria viridis (SETVI); conditions: 504 h, SETVI, 21 DAT, read-out: % activity found
Procedure: as §1, §2, §3, §6, §5

`COc1nc(OC)nc(C(=O)c2cccc(F)c2N(C)S(=O)(=O)C(F)F)n1` [A-1] was tested, and the “(7) activity found” value [1] was 85%, the “(7) activity found” value ([2]; 21 DAT, rate (5) A-1 4) was 10% and the “(7) activity found” value ([2]; 21 DAT, rate (5) A-1 12) was 30%. For the same compound, the inhibition at 4 g/ha ([2]; 240 h, 10 DAT) was 40%, the inhibition at 12 g/ha ([2]; 240 h, 10 DAT) was 50% and the inhibition at 4 g/ha ([2]; 504 h, 21 DAT) was 10%. For the same compound, the inhibition at 12 g/ha ([2]; 504 h, 21 DAT) was 30%, the “(7) activity found” value ([3]; rate (5) A-1 4) was 80% and the “(7) activity found” value ([3]; rate (5) A-1 12) was 80%. The “(7) activity found” value ([3]; rate (5) A-1 12 (Table 85)) was 80%, the inhibition at 4 g/ha ([3]; Cyperus esculentus, post-emergence, 504 h, 4 g of ai/ha alone, read-out: % activity found) was 80% and the inhibition at 12 g/ha ([3]; Cyperus esculentus, post-emergence, 504 h, 12 g of ai/ha alone, read-out: % activity found) was 80%. The inhibition at 4 g/ha ([4]; Fallopia convolvulus, post-emergence, 504 h, 4 g of ai/ha alone, read-out: % activity found) was 75%, the inhibition at 12 g/ha ([4]; Fallopia convolvulus, post-emergence, 504 h, 12 g of ai/ha alone, read-out: % activity found) was 70% and the “(7) activity found” value ([4]; rate (5) A-1 4) was 75%. The “(7) activity found” value ([4]; rate (5) A-1 12) was 70%, the “(7) activity found” value ([5]; 10 DAT, rate (5) A-1 4) was 0% and the “(7) activity found” value ([5]; 10 DAT, rate (5) A-1 12) was 10%. For the same compound, the inhibition at 4 g/ha ([5]; 240 h, 10 DAT) was 0%, the inhibition at 12 g/ha ([5]; 240 h, 10 DAT) was 10% and the inhibition at 4 g/ha ([5]; 504 h, 21 DAT) was 0%. For the same compound, the inhibition at 12 g/ha ([5]; 504 h, 21 DAT) was 10%, the “(7) activity found” value ([6]; rate (5) A-1 4) was 50% and the “(7) activity found” value ([6]; rate (5) A-1 12) was 60%. The inhibition at 4 g/ha ([6]; Tripleurospermum inodorum, post-emergence, 504 h, 4 g of ai/ha alone, read-out: % activity found) was 50%, the inhibition at 12 g/ha ([6]; Tripleurospermum inodorum, post-emergence, 504 h, 12 g of ai/ha alone, read-out: % activity found) was 60% and the “(7) activity found” value ([7]; rate (5) A-1 4) was 60%. For the same compound, the “(7) activity found” value ([7]; rate (5) A-1 12) was 65%, the “(7) activity found” value ([8]; rate (5) A-1 4) was 70% and the “(7) activity found” value ([8]; rate (5) A-1 12) was 70%. For the same compound, the “(7) activity found” value ([9]; 10 DAT) was 0%, the “(7) activity found” value ([9]; 21 DAT) was 0% and the inhibition at 4 g/ha ([9]; 240 h, 10 DAT) was 0%. It also gave an inhibition at 12 g/ha ([9]; 240 h, 10 DAT) of 0%, an inhibition at 4 g/ha ([9]; 504 h, 21 DAT) of 0% and an inhibition at 12 g/ha ([9]; 504 h, 21 DAT) of 0%. For the same compound, the “(7) activity found” value [10] was 40%, the “(7) activity found” value ([11]; 10 DAT) was 20% and the “(7) activity found” value ([11]; 21 DAT) was 10%. For the same compound, the inhibition at 4 g/ha ([11]; Viola tricolor, post-emergence, 504 h, 21 DAT, 4 g of ai/ha alone, read-out: % activity found) was 0%, the inhibition at 12 g/ha ([11]; Viola tricolor, post-emergence, 504 h, 21 DAT, 12 g of ai/ha alone, read-out: % activity found) was 10% and the “(7) activity found” value ([12]; 10 DAT, rate (5) A-1 4) was 0%. For the same compound, the “(7) activity found” value ([12]; 10 DAT, rate (5) A-1 12) was 0%, the “(7) activity found” value ([12]; 21 DAT, rate (5) A-1 4) was 0% and the “(7) activity found” value ([12]; 21 DAT, rate (5) A-1 4 (Table 80)) was 0%. The “(7) activity found” value ([12]; 21 DAT, rate (5) A-1 12) was 0%, the “(7) activity found” value ([12]; 21 DAT, rate (5) A-1 12 (Table 80)) was 0% and the inhibition at 4 g/ha ([12]; 240 h, 10 DAT) was 0%. For the same compound, the inhibition at 12 g/ha ([12]; 240 h, 10 DAT) was 0%, the inhibition at 4 g/ha ([12]; 504 h, 21 DAT) was 0% and the inhibition at 12 g/ha ([12]; 504 h, 21 DAT) was 0%. For the same compound, the inhibition at 4 g/ha ([13]; 240 h, 10 DAT) was 40%, the inhibition at 12 g/ha ([13]; 240 h, 10 DAT) was 40% and the inhibition at 4 g/ha ([13]; 504 h, 21 DAT) was 40%. The inhibition at 12 g/ha ([13]; 504 h, 21 DAT) was 50%, the inhibition at 4 g/ha ([14]; 240 h, 10 DAT) was 10% and the inhibition at 12 g/ha ([14]; 240 h, 10 DAT) was 10%. The inhibition at 4 g/ha ([14]; 504 h, 21 DAT) was 0%, the inhibition at 12 g/ha ([14]; 504 h, 21 DAT) was 10% and the inhibition at 4 g/ha ([15]; 4 g of ai/ha alone) was 0%. For the same compound, the inhibition at 12 g/ha ([15]; 12 g of ai/ha alone) was 20%.
